ChEMBL document CHEMBL5108031, “Novel N-(4-thiocyanatophenyl)-1H-1,2,3-triazole-4-carboxamides exhibit selective cytotoxic activity at nanomolar doses towards human leukemic T-cells” (Eur J Med Chem, 2022)
Active and inactive are the calls of the source. The rule behind the calls is not given here.

Columns and labels:
[1] = molecular target: Heat shock protein HSP 90-alpha (Homo sapiens, UniProt P07900); assay: Inhibition of Hsp90alpha (unknown origin)
HCT-116 [2] = assay: Antiproliferative activity against human HCT-116 cells incubated for 72 hrs and measured by MTT assay; type: functional
HCT-116 [3] = assay: Antiproliferative activity against p53-deficient human HCT-116 cells incubated for 72 hrs and measured by MTT assay; type: functional
WM793 = assay: Antiproliferative activity against human WM793 cells incubated for 72 hrs and measured by MTT assay; type: functional
HeLa = assay: Antiproliferative activity against human HeLa cells incubated for 72 hrs and measured by MTT assay; type: functional
KB 3-1 = assay: Antiproliferative activity against human KB 3-1 cells incubated for 72 hrs and measured by MTT assay; type: functional
A549 = assay: Antiproliferative activity against human A549 cells incubated for 72 hrs and measured by MTT assay; type: functional
MCF7 = assay: Antiproliferative activity against human MCF7 cells incubated for 72 hrs and measured by MTT assay; type: functional
MDA-MB-231 = assay: Antiproliferative activity against human MDA-MB-231 cells incubated for 72 hrs and measured by MTT assay; type: functional
SK-OV-3 = assay: Antiproliferative activity against human SK-OV-3 cells incubated for 72 hrs and measured by MTT assay; type: functional
THP-1 = assay: Antiproliferative activity against human THP-1 cells incubated for 72 hrs and measured by MTT assay; type: functional
K562 [4] = assay: Antiproliferative activity against human K562 cells incubated for 72 hrs and measured by MTT assay; type: functional
Jurkat [5] = assay: Antiproliferative activity against human Jurkat cells incubated for 72 hrs and measured by MTT assay; type: functional
HaCaT = assay: Antiproliferative activity against human HaCaT cells incubated for 72 hrs and measured by MTT assay; type: functional
HEK293 = assay: Antiproliferative activity against human HEK293 cells incubated for 72 hrs and measured by MTT assay; type: functional
BALB/3T3 = assay: Antiproliferative activity against mouse BALB/3T3 cells incubated for 72 hrs and measured by MTT assay; type: functional
CAKI-1 = assay: Antiproliferative activity against human CAKI-1 cells assessed as relative cell growth at 10 uM incubated for 48 hrs and measured by SRB assay; type: functional; details: read-out: Activity
LOX IMVI [6] = assay: Antiproliferative activity against human LOX IMVI cells assessed as relative cell growth at 10 uM incubated for 48 hrs and measured by SRB assay; type: functional; details: read-out: Activity
SR [7] = assay: Antiproliferative activity against human SR cells assessed as relative cell growth at 10 uM incubated for 48 hrs and measured by SRB assay; type: functional; details: read-out: Activity
MOLT-4 = assay: Antiproliferative activity against human MOLT-4 cells assessed as relative cell growth at 10 uM incubated for 48 hrs and measured by SRB assay; type: functional; details: read-out: Activity
UO-31 [8] = assay: Antiproliferative activity against human UO-31 cells assessed as relative cell growth at 10 uM incubated for 48 hrs and measured by SRB assay; type: functional; details: read-out: Activity
CCRF-CEM = assay: Antiproliferative activity against human CCRF-CEM cells assessed as relative cell growth at 10 uM incubated for 48 hrs and measured by SRB assay; type: functional; details: read-out: Activity
SF-539 = assay: Antiproliferative activity against human SF-539 cells assessed as relative cell growth at 10 uM incubated for 48 hrs and measured by SRB assay; type: functional; details: read-out: Activity
SF-295 [9] = assay: Antiproliferative activity against human SF-295 cells assessed as relative cell growth at 10 uM incubated for 48 hrs and measured by SRB assay; type: functional; details: read-out: Activity
HL-60(TB) [10] = assay: Antiproliferative activity against human HL-60(TB) cells assessed as relative cell growth at 10 uM incubated for 48 hrs and measured by SRB assay; type: functional; details: read-out: Activity
K562 [11] = assay: Antiproliferative activity against human K562 cells assessed as relative cell growth at 10 uM incubated for 48 hrs and measured by SRB assay; type: functional; details: read-out: Activity
NCI-H460 [12] = assay: Antiproliferative activity against human NCI-H460 cells assessed as relative cell growth at 10 uM incubated for 48 hrs and measured by SRB assay; type: functional; details: read-out: Activity
MDA-MB-468 = assay: Antiproliferative activity against human MDA-MB-468 cells assessed as relative cell growth at 10 uM incubated for 48 hrs and measured by SRB assay; type: functional; details: read-out: Activity
HCC 2998 = assay: Antiproliferative activity against human HCC 2998 cells assessed as relative cell growth at 10 uM incubated for 48 hrs and measured by SRB assay; type: functional; details: read-out: Activity
COLO 205 = assay: Antiproliferative activity against human COLO 205 cells assessed as relative cell growth at 10 uM incubated for 48 hrs and measured by SRB assay; type: functional; details: read-out: Activity
A498 = assay: Antiproliferative activity against human A498 cells assessed as relative cell growth at 10 uM incubated for 48 hrs and measured by SRB assay; type: functional; details: read-out: Activity
Malme-3M = assay: Antiproliferative activity against human Malme-3M cells assessed as relative cell growth at 10 uM incubated for 48 hrs and measured by SRB assay; type: functional; details: read-out: Activity
LOX IMVI [13] = assay: Antiproliferative activity against human LOX IMVI cells incubated for 48 hrs and measured by SRB assay; type: functional
HOP-92 = assay: Antiproliferative activity against human HOP-92 cells incubated for 48 hrs and measured by SRB assay; type: functional
NCI-H522 = assay: Antiproliferative activity against human NCI-H522 cells incubated for 48 hrs and measured by SRB assay; type: functional
SR [14] = assay: Antiproliferative activity against human SR cells incubated for 48 hrs and measured by SRB assay; type: functional
HL-60(TB) [15] = assay: Antiproliferative activity against human HL-60(TB) cells incubated for 48 hrs and measured by SRB assay; type: functional
SF-295 [16] = assay: Antiproliferative activity against human SF-295 cells incubated for 48 hrs and measured by SRB assay; type: functional
RXF 393 = assay: Antiproliferative activity against human RXF 393 cells incubated for 48 hrs and measured by SRB assay; type: functional
TK-10 = assay: Antiproliferative activity against human TK-10 cells incubated for 48 hrs and measured by SRB assay; type: functional
UO-31 [17] = assay: Antiproliferative activity against human UO-31 cells incubated for 48 hrs and measured by SRB assay; type: functional
NCI-H460 [18] = assay: Antiproliferative activity against human NCI-H460 cells incubated for 48 hrs and measured by SRB assay; type: functional, cell-based; details: NCI-H460, 48 h
Jurkat [19] = assay: Induction of apoptosis in human Jurkat cells assessed as fragmented DNA and nuclei at 0.5 uM measured after 24 hrs by Hoechst 33342/propidium iodide staining based fluorescence microscopic analysis; type: functional, cell-based
Jurkat [20] = assay: Induction of apoptosis in human Jurkat cells assessed as condensed chromatin at 0.5 uM measured after 24 hrs by Hoechst 33342/propidium iodide staining based fluorescence microscopic analysis; type: functional, cell-based
Jurkat [21] = assay: Induction of apoptosis in human Jurkat cells assessed as cellular membrane blebbing at 0.5 uM measured after 24 hrs by Hoechst 33342/propidium iodide staining based fluorescence microscopic analysis; type: functional, cell-based
Jurkat [22] = assay: Induction of apoptosis in human Jurkat cells assessed as appearance of apoptotic bodies at 0.5 uM measured after 24 hrs by Hoechst 33342/propidium iodide staining based fluorescence microscopic analysis; type: functional, cell-based
Jurkat [23] = assay: Induction of apoptosis in human Jurkat cells assessed as cell debris at 0.5 uM measured after 24 hrs by Hoechst 33342/propidium iodide staining based fluorescence microscopic analysis; type: functional
Jurkat [24] = assay: Induction of apoptosis in human Jurkat cells assessed as decrease in mitochondrial membrane potential at 0.5 uM measured after 24 hrs by Rhodamine 123 fluorescence based assay; type: functional, cell-based
Jurkat [25] = assay: Induction of DNA damage in human Jurkat cells assessed as tail DNA at 0.5 uM measured after 24 hrs by comet assay; type: functional
Jurkat [26] = assay: Induction of DNA damage in human Jurkat cells assessed as olive tail moment at 0.5 uM measured after 24 hrs by comet assay; type: functional
Jurkat [27] = assay: Induction of DNA damage in human Jurkat cells assessed as DNA fragmentation at 0.5 uM measured by Diphenylamine assay; type: functional
DNA = assay: Binding affinity to DNA (unknown origin) assessed as DNA intercalation at 1 to 100 uM by measuring amount of methyl green dye replaced from DNA-methyl green complex; type: nucleic-acid assay; details: Homo sapiens; dose 1-100 µM
[28] = read-out: LC50 (the source's name)

In the case of Cc1c(C(=O)Nc2ccc(SC#N)cc2)nnn1-c1ccc(C(C)C)cc1, the IC50 [1] is reported as 0.023 µM, the GI50 (HCT-116 [2]) is reported as over 100 µM and the GI50 (HCT-116 [3]) is reported as 8.4 µM. For the same compound, the GI50 (WM793) was over 100 µM, the GI50 (HeLa) was over 100 µM and the GI50 (KB 3-1) was 7.4 µM. For the same compound, the GI50 (A549) was over 100 µM, the GI50 (MCF7) was over 100 µM and the GI50 (MDA-MB-231) was over 100 µM. It also gave a GI50 (SK-OV-3) of 10 µM, a GI50 (THP-1) of over 100 µM and a GI50 (K562 [4]) of 5.4 µM. For the same compound, the GI50 (Jurkat [5]) was 0.69 µM, the GI50 (HaCaT) was over 100 µM and the GI50 (HEK293) was over 100 µM. For the same compound, the GI50 (BALB/3T3) was over 100 µM, the growth at 10 µM (CAKI-1) was -53.2% and the growth at 10 µM (LOX IMVI [6]) was -53.1%. For the same compound, the growth at 10 µM (SR [7]) was -19.9%, the growth at 10 µM (MOLT-4) was -17.6% and the growth at 10 µM (UO-31 [8]) was -17.1%. It also gave a growth at 10 µM (CCRF-CEM) of -13.3%, a growth at 10 µM (SF-539) of 2.96% and a growth at 10 µM (SF-295 [9]) of 4.89%. It also gave a growth at 10 µM (HL-60(TB) [10]) of 8.6%, a growth at 10 µM (K562 [11]) of 10.3% and a growth at 10 µM (NCI-H460 [12]) of 13.7%. It also gave a growth at 10 µM (MDA-MB-468) of 80.1%, a growth at 10 µM (HCC 2998) of 82.6% and a growth at 10 µM (COLO 205) of 89.4%. The growth at 10 µM (A498) was 93.6%, the growth at 10 µM (Malme-3M) was 95.1% and the GI50 (LOX IMVI [13]) was 0.15 µM. It also gave a TGI (LOX IMVI [13]) of 1.12 µM, a CC50 (LOX IMVI [13]; [28]) of 4.48 µM and a GI50 (HOP-92) of 2.85 µM. The TGI (HOP-92) was 10.2 µM, the CC50 (HOP-92; [28]) was 62 µM and the GI50 (NCI-H522) was 1.97 µM. For the same compound, the TGI (NCI-H522) was 5.81 µM, the CC50 (NCI-H522; [28]) was over 100 µM and the GI50 (SR [14]) was 1.77 µM. The TGI (SR [14]) was 5.51 µM, the CC50 (SR [14]; [28]) was over 100 µM and the GI50 (HL-60(TB) [15]) was 2.8 µM. It also gave a TGI (HL-60(TB) [15]) of 11.5 µM, a CC50 (HL-60(TB) [15]; [28]) of over 100 µM and a GI50 (SF-295 [16]) of 2.71 µM. It also gave a TGI (SF-295 [16]) of 9.79 µM, a CC50 (SF-295 [16]; [28]) of over 100 µM and a GI50 (RXF 393) of 4.27 µM. It also gave a TGI (RXF 393) of 20.4 µM, a CC50 (RXF 393; [28]) of 69.5 µM and a GI50 (TK-10) of 3.21 µM. For the same compound, the TGI (TK-10) was 9.94 µM, the CC50 (TK-10; [28]) was over 100 µM and the GI50 (UO-31 [17]) was 2.88 µM. For the same compound, the TGI (UO-31 [17]) was 15.5 µM, the CC50 (UO-31 [17]; [28]) was over 100 µM and the IC50 (NCI-H460 [18]) was 0.028 µM. The Activity (Jurkat [19]) was “Active”, the Activity (Jurkat [20]) was “Active” and the Activity (Jurkat [21]) was “Active”. For the same compound, the Activity (Jurkat [22]) was “Active”, the Activity (Jurkat [23]) was “Active” and the Activity (Jurkat [24]) was “Active”. It also gave an Activity (Jurkat [25]) of 8.5%, an Activity (Jurkat [26]) of 1.3 and an Activity (Jurkat [27]) of 26.7%. It also gave an Activity (DNA) of 2.4%.
